Columns and labels:
opioid receptors = conditions: found in U.S. Ser. No. 11/441,395 and 11/441,452; cited from earlier work
[1] = for inhibition of formation of 2′,2′ bis methylnaltrexone degradant / inhibition of formation of 7-dihydroxy-methylnaltrexone degradant: in presence of iron, 40° C. and room temperature
Description: FIG. 1A and FIG. 1B: Effect of CaEDTA and NaEDTA on the formation of 2′,2-bis methylnaltrexone in the presence of iron at 40° C. (FIG. 1A) and room temperature, […] (FIG. 1B).
FIGS. 2A, 2B, 2C, and 2D: Effect of CaEDTA on the formation of 7-dihydroxy methylnaltrexone in solutions. The effect of CaEDTA and NaEDTA on the formation of 7-dihydroxy methylnaltrexone in the presence of iron at 40° C. (FIG. 2A) and room temperature, 25° (FIG. 2B) was assessed. […] The effect of CaEDTA on the formation of 7-dihydroxy methylnaltrexone in solution following one month storage at room temperature (FIG. 2C) and at 40° C. (FIG. 2D) was assessed. The presence of CaEDTA reduced formation of 7-dihydroxy methylnaltrexone at either temperature.
FIG. 3A and FIG. 3B: Effect of CaEDTA in methylnaltrexone solution on the formation of a methylnaltrexone degradant having an RRT 0.79 (“the 0.79 degradant”). The effect of CaEDTA and NaEDTA on the formation of the 0.79 degradant at room temperature, 25° (FIG. 3A) and at 40° C. (FIG. 3B) was assessed. Calcium EDTA was not effective at inhibiting formation of the 0.79 degradant, and may increase levels of degradant formation.
Inhibition of metal-catalyzed formation of 2,2′bis methylnaltrexone. […] We have found by HPLC analysis (Method B) the 2,2′bis methylnaltrexone degradant results in a peak having an RRT about 1.55. Fe^3+ is an ion that can get into the liquid formulation from several sources. For example, it can be leached from stainless steel process equipment, syringe needles, stoppers and amber vials. EDTA, as a metal chelating agent sequesters the available Fe^3+ in the solution, thereby preventing catalysis of the undesirable metal-catalyzed reactions. Methylnaltrexone solutions were prepared in 0.9% NaCl, in the presence of iron and various concentrations of sodium EDTA and calcium EDTA. Used throughout the experiments sodium EDTA is EDTA disodium dihydrate, and the terms sodium EDTA, EDTA disodium dihydrate, and NaEDTA are used interchangeably throughout. Used throughout the experiments calcium EDTA is calcium EDTA disodium, and the terms calcium EDTA, calcium EDTA disodium, and CaEDTA are used interchangeably throughout. Formation of 2,2′bis methylnaltrexone was assessed at room temperature as well as at 40° C. Addition of either sodium or calcium EDTA solution was effective at inhibiting formation of the 2,2′bis methylnaltrexone degradant.
We have found Ca^2+ chelating agent provides additional inhibition of formation of a 7-dihydroxy-methylnaltrexone degradant as compared to Na^2+ chelating agent. Methylnaltrexone solutions were prepared in 0.9% NaCl, in the presence of iron and various concentrations of sodium EDTA and calcium EDTA. Formation of 7-dihydroxy-methylnaltrexone was assessed at room temperature as well as at 40° C.

Row | SMILES | opioid activity (opioid receptors) | inhibition of formation of 2′,2′ bis methylnaltrexone degradant [1] | inhibition of formation of 7-dihydroxy-methylnaltrexone degradant [1] | inhibition of formation of the 0.79 degradant ([1]; room temperature and 40° C.)
1 | C[N@@+]1(CC2CC2)CC[C@]23c4c5ccc(O)c4OC2C(=O)CCC3(O)C1C5 (single isomer, unassigned) [S—N isomer of methylnaltrexone] | opioid agonist | – | – | –
2 | O.O.O=C([O-])CN(CCN(CC(=O)[O-])CC(=O)O)CC(=O)O.[Na+].[Na+] [sodium EDTA, EDTA disodium dihydrate] | – | effective inhibitors | may even increase levels | –
3 | O=C([O-])CN(CCN(CC(=O)[O-])CC(=O)[O-])CC(=O)[O-].[Ca+2].[Na+].[Na+] [calcium EDTA, calcium EDTA disodium] | – | effective inhibitors | effective inhibitor | not effective
4 | C[N+]1(CC2CC2)CCC23c4c5ccc(O)c4OC2C(=O)CCC3(O)C1C5 (single isomer, unassigned) [R—N isomer of methylnaltrexone] | opioid antagonist | – | – | –

— US12303592B2, “Formulations for parenteral delivery of compounds and uses thereof” (Wyeth, LLC, priority 2006, dated 2025)
